# Experiments:
# [1] = target: Adrenocorticotropic hormone receptor (Homo sapiens, UniProt Q01718)
# Description: Displacement of [[125I]-Tyr23]-ACTH (1-39) from human MC2R incubated for 1.5 hrs by Topcount scintillation counting method
# [2] = in vitro; conditions: rat, liver microsomes
# Description: Stability in rat liver microsomes assessed as half life
# [3] = in vitro; conditions: human, liver microsomes
# Description: Stability in human liver microsomes assessed as half life
# [4] = in vivo; conditions: rat, po, 10 mg/kg
# [5] = in vivo; conditions: rat, po, 10 mg/kg; remark: listed apart in the source
# [6] = in vivo; conditions: rat, po, 10 mg/kg; remark: listed apart in the source
# [7] = in vivo; conditions: rat, po, 10 mg/kg; remark: listed apart in the source
# Description: AUClast in rat at 10 mg/kg, po
# [8] = in vivo; conditions: rat, po, 10 mg/kg; remark: listed apart in the source
# Description: Half life in rat at 10 mg/kg, po
# [9] = in vitro; conditions: dog, MDCK
# Description: Apparent permeability in MDCK cells
# [10] = target: Cytochrome P450 2D6 (Homo sapiens, UniProt P10635)
# Sequence of Cytochrome P450 2D6 (P10635 whole entry): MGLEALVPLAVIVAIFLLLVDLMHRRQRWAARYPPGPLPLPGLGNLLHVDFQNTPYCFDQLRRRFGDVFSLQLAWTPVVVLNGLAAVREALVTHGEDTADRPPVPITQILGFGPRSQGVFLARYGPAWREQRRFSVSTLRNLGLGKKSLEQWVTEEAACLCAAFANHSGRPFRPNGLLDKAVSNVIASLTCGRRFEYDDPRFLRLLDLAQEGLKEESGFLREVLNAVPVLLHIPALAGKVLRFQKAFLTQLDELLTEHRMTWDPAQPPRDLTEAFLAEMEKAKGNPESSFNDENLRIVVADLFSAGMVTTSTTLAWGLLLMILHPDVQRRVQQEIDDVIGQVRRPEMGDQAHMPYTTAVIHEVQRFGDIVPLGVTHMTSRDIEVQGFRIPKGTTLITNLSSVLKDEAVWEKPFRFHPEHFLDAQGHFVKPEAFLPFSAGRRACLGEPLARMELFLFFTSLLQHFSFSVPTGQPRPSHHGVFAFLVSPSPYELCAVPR
# Description: Time dependent inhibition of CYP2D6 (unknown origin)
# [11] = in vitro; conditions: dog, plasma
# Description: Plasma protein binding in dog at 1 uM
# [12] = in vivo; conditions: rat, iv, 5 mg/kg
# Description: Volume of distribution at steady state in rat at 5 mg/kg, iv
# [13] = in vivo; conditions: Sprague-Dawley, rat, plasma, po, 3 mg/kg
# Description: Drug concentration in Sprague-Dawley rat plasma at 3 mg/kg, po administered as single dose and stimulated with ACTH for 1 hr measured after 1.5 hrs
# [14] = system: MDR1; test: in vitro; conditions: dog, MDCK-MDR1
# Description: Efflux ratio of apparent permeability across basolateral to apical over apical to basolateral in MDCK-MDR1 cells
# [15] = in vivo; conditions: dog, po, 5 mg/kg
# Description: Oral bioavailability in dog at 5 mg/kg
# [16] = in vitro; conditions: human, plasma
# Description: Plasma protein binding in human at 1 uM
# [17] = in vivo; conditions: rat, iv, 5 mg/kg; remark: listed apart in the source
# Description: Half life in rat at 5 mg/kg, iv
# [18] = in vivo; conditions: rat, po, 5 mg/kg
# Description: Oral bioavailability in rat at 5 mg/kg
# [19] = in vitro; conditions: rat, plasma
# Description: Plasma protein binding in rat at 1 uM
# [20] = target: Melanocortin receptor 5 (Homo sapiens, UniProt P33032)
# Sequence of Melanocortin receptor 5 (P33032 whole entry): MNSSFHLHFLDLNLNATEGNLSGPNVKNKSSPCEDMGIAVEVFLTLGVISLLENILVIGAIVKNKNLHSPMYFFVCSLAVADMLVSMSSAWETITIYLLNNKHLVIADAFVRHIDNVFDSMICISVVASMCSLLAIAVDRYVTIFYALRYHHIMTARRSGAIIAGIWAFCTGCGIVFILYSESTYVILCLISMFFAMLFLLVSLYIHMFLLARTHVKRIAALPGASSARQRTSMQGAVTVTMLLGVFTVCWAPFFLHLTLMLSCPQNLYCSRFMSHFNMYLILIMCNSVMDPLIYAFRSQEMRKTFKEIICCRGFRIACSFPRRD
# [21] = in vivo; conditions: Sprague-Dawley, rat, plasma, po, 3 mg/kg; remark: listed apart in the source
# Description: Drug concentration in Sprague-Dawley rat plasma at 3 mg/kg, po administered as single dose and stimulated with ACTH for 1 hr measured after 0.5 hr
# [22] = in vivo; conditions: dog, po, 5 mg/kg; remark: listed apart in the source
# Description: AUClast in dog at 5 mg/kg, po
# [23] = in vivo; conditions: Sprague-Dawley, rat, plasma, po, 30 mg/kg
# Description: Drug concentration in Sprague-Dawley rat plasma at 30 mg/kg, po administered as single dose and stimulated with ACTH for 4 hrs measured after 1.5 hrs
# [24] = in vivo; conditions: Sprague-Dawley, rat, plasma, po, 30 mg/kg; remark: listed apart in the source
# Description: Drug concentration in Sprague-Dawley rat plasma at 30 mg/kg, po administered as single dose and stimulated with ACTH for 24 hrs measured after 0.5 hrs
# [25] = in vivo; conditions: rat, iv, 5 mg/kg; remark: listed apart in the source
# Description: Clearance in rat at 5 mg/kg, iv
# [26] = target: 5-hydroxytryptamine receptor 1B (Homo sapiens, UniProt P28222)
# Sequence of 5-hydroxytryptamine receptor 1B (P28222 whole entry): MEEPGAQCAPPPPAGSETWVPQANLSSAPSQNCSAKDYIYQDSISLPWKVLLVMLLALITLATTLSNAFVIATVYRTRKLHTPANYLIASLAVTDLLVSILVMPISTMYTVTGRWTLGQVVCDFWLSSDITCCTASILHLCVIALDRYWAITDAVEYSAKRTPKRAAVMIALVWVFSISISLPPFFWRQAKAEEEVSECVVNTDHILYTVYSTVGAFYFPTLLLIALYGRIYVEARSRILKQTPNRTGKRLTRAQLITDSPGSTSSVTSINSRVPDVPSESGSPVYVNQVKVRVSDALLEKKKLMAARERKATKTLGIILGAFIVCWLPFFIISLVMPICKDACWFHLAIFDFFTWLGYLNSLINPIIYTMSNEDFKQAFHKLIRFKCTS
# Description: Antagonist activity at 5-HT1B (unknown origin)
# [27] = target: Melanocortin receptor 4 (Homo sapiens, UniProt P32245)
# Sequence of Melanocortin receptor 4 (P32245 whole entry): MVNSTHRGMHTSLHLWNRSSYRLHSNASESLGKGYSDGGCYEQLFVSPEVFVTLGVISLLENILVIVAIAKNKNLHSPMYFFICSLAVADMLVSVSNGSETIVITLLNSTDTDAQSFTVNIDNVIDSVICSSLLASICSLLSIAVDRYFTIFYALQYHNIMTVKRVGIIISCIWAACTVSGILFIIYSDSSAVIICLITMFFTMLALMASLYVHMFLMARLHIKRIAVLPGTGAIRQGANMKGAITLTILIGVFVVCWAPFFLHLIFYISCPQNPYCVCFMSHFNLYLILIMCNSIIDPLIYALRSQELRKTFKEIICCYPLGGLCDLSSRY
# [28] = in vivo; conditions: Sprague-Dawley, rat, plasma, po, 30 mg/kg; remark: listed apart in the source
# Description: Drug concentration in Sprague-Dawley rat plasma at 30 mg/kg, po administered as single dose and stimulated with ACTH for 48 hrs measured after 0.5 hrs
# [29] = in vivo; conditions: Sprague-Dawley, rat, plasma, po, 30 mg/kg; remark: listed apart in the source
# Description: Drug concentration in Sprague-Dawley rat plasma at 30 mg/kg, po administered as single dose and stimulated with ACTH for 4 hrs measured after 0.5 hrs
# [30] = target: Cytochrome P450 2C9 (Homo sapiens, UniProt P11712)
# Sequence of Cytochrome P450 2C9 (P11712 whole entry): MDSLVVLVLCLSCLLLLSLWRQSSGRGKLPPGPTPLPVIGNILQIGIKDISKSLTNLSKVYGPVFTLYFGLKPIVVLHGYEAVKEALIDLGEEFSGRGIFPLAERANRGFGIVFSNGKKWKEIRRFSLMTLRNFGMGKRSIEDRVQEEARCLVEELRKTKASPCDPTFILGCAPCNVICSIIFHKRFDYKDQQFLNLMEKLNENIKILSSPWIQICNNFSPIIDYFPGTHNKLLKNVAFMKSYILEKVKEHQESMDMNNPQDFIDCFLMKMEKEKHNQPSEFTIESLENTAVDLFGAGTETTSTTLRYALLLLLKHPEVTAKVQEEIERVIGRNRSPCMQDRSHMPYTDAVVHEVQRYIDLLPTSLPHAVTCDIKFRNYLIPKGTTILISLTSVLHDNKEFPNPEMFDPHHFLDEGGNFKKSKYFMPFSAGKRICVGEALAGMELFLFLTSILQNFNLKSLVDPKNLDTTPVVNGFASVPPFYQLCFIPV
# Description: Inhibition of CYP2C9 (unknown origin)
# [31] = in vivo; conditions: dog, po, 5 mg/kg; remark: listed apart in the source
# Description: Cmax in dog at 5 mg/kg, po
# [32] = in vivo; conditions: rat, po, 5 mg/kg; remark: listed apart in the source
# Description: Cmax in rat at 5 mg/kg, po
# [33] = in vivo; conditions: Sprague-Dawley, rat, plasma, po, 30 mg/kg; remark: listed apart in the source
# Description: Drug concentration in Sprague-Dawley rat plasma at 30 mg/kg, po administered as single dose and stimulated with ACTH for 1 hr measured after 0.5 hr
# [34] = target: L-type calcium channel (Homo sapiens, UniProt O60840+Q01668+Q13698+Q13936); test: in vitro
# Description: Inhibition of L-type calcium channel (unknown origin) at 10 uM relative to control
# [35] = target: Melanocyte-stimulating hormone receptor (Homo sapiens, UniProt Q01726)
# Sequence of Melanocyte-stimulating hormone receptor (Q01726 whole entry): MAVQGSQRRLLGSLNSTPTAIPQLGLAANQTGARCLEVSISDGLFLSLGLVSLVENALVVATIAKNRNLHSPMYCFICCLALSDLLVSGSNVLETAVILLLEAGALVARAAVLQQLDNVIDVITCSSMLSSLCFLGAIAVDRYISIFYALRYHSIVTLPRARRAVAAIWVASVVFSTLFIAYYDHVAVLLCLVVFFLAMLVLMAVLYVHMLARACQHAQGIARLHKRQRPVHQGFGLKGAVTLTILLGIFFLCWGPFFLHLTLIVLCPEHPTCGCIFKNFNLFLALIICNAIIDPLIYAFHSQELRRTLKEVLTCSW
# [36] = in vivo; conditions: dog, iv, 5 mg/kg
# Description: Clearance in dog at 5 mg/kg, iv
# [37] = in vivo; conditions: Sprague-Dawley, rat, plasma, po, 30 mg/kg; remark: listed apart in the source
# Description: Drug concentration in Sprague-Dawley rat plasma at 30 mg/kg, po administered as single dose and stimulated with ACTH for 24 hrs measured after 1.5 hrs
# [38] = in vivo; conditions: dog, iv, 5 mg/kg; remark: listed apart in the source
# Description: Half life in dog at 5 mg/kg, iv
# [39] = in vivo; conditions: Sprague-Dawley, rat, plasma, po, 30 mg/kg; remark: listed apart in the source
# Description: Drug concentration in Sprague-Dawley rat plasma at 30 mg/kg, po administered as single dose and stimulated with ACTH for 1 hr measured after 1.5 hrs
# [40] = in vivo; conditions: Sprague-Dawley, rat, plasma, po, 3 mg/kg; remark: listed apart in the source
# Description: Drug concentration in Sprague-Dawley rat plasma at 3 mg/kg, po administered as single dose and stimulated with ACTH for 4 hrs measured after 1.5 hrs
# [41] = in vivo; conditions: Sprague-Dawley, rat, plasma, po, 3 mg/kg; remark: listed apart in the source
# Description: Drug concentration in Sprague-Dawley rat plasma at 3 mg/kg, po administered as single dose and stimulated with ACTH for 24 hrs measured after 0.5 hrs
# [42] = target: Cytochrome P450 3A4 (Homo sapiens, UniProt P08684)
# Sequence of Cytochrome P450 3A4 (P08684 whole entry): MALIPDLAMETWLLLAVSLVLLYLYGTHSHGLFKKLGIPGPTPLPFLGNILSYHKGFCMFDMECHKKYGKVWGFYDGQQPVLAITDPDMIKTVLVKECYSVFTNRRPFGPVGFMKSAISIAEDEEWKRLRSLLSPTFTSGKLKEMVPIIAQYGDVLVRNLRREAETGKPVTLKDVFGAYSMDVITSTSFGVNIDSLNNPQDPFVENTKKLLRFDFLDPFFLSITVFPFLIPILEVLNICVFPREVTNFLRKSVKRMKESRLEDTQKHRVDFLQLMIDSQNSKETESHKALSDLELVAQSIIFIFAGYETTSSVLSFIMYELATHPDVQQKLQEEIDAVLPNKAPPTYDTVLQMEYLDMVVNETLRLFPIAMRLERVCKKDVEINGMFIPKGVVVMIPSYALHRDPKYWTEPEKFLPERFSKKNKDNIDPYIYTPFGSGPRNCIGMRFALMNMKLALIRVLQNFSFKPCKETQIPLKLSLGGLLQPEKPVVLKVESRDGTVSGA
# Description: Time dependent inhibition of CYP3A4 (unknown origin)
# [43] = target: Melanocortin receptor 3 (Homo sapiens, UniProt P41968)
# Sequence of Melanocortin receptor 3 (P41968 whole entry): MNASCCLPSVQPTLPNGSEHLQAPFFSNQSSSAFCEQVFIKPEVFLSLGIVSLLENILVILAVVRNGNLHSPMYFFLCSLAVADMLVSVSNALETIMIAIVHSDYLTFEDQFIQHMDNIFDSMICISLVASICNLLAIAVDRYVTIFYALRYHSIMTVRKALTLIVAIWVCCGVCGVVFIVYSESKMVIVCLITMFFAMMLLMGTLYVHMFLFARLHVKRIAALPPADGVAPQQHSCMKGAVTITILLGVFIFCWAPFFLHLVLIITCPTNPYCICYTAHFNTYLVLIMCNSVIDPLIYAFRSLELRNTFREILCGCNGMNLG
# [44] = target: Cytochrome P450 2C19 (Homo sapiens, UniProt P33261)
# Sequence of Cytochrome P450 2C19 (P33261 whole entry): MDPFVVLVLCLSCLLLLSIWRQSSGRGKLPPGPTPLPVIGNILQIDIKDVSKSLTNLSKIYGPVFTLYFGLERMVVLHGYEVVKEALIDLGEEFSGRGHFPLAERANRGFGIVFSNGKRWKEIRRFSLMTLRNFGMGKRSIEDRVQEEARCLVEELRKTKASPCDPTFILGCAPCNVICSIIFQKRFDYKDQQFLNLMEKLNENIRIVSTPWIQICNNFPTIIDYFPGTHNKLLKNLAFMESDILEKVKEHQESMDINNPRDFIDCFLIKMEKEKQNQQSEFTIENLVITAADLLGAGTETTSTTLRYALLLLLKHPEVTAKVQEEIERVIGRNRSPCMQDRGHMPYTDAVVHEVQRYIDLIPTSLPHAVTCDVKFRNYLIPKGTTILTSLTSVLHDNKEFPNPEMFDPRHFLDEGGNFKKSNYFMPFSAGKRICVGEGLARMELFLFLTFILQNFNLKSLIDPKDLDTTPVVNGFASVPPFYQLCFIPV
# Description: Inhibition of CYP2C19 (unknown origin)
# [45] = in vivo; conditions: rat, po, 5 mg/kg; remark: listed apart in the source
# Description: AUClast in rat at 5 mg/kg, po
# [46] = in vivo; conditions: Sprague-Dawley, rat, plasma, po, 3 mg/kg; remark: listed apart in the source
# Description: Drug concentration in Sprague-Dawley rat plasma at 3 mg/kg, po administered as single dose and stimulated with ACTH for 4 hrs measured after 0.5 hrs
# [47] = in vivo; conditions: dog, iv, 5 mg/kg; remark: listed apart in the source
# Description: Volume of distribution at steady state in dog at 5 mg/kg, iv
# Sequence of Adrenocorticotropic hormone receptor (Q01718 whole entry): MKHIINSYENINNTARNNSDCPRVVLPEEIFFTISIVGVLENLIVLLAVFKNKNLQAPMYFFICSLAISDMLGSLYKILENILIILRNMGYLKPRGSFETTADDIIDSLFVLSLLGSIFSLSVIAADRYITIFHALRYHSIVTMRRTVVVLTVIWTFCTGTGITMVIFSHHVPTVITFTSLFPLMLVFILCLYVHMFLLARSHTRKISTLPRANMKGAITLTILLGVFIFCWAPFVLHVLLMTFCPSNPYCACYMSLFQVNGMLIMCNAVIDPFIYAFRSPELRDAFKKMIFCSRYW
smiles,measurement,setting,value
CCOc1ncccc1-c1ccc(N2CCN(C(=O)c3ccc(Cl)cc3C(F)(F)F)C[C@H]2CC)c(C(=O)NCCN)c1,Ki,[1],1.1 nM
CCOc1ncccc1-c1ccc(N2CCN(C(=O)C3(C(F)(F)F)CCCC3)C[C@H]2CC)c(C(=O)N[C@@H]2CCN(C)C2)n1,Ki,[1],0.63 nM
same,half-life,[2],3.85 h
same,half-life,[3],0.383 h
CC[C@@H]1CN(C(=O)c2ccc(C(F)(F)F)cc2Cl)CCN1c1ccc(-c2ccccc2C#N)cc1C(=O)NCCN,Ki,[1],25 nM
CCOc1ncccc1-c1ccc(N2CCN(C(=O)C3(C(F)(F)F)CCC3)C[C@H]2CC)c(C(=O)N[C@@H]2CN3CCC2CC3)n1,Ki,[1],4.4 nM
CCOc1ccccc1-c1ccc(N2CCN(C(=O)c3ccc(Cl)cc3C(F)(F)F)C[C@H]2CC)c(C(=O)NCCN)c1,Ki,[1],1.6 nM
CCOc1ccccc1-c1ccc(N2CCN(C(=O)c3ccc(Cl)cc3Cl)C[C@H]2CC)c(C(=O)NCCN)c1,Cmax,[4],2.8 nM
same,Ki,[1],4.8 nM
same,AUC(0-t),[5],0.0081 µM·h
CCOc1ccccc1-c1ccc(N2CCN(C(=O)C3(C(F)(F)F)CCC3)C[C@H]2CC)c(C(=O)N[C@@H]2CCN(C)C2)n1,Ki,[1],1.3 nM
same,half-life,[2],3.85 h
same,half-life,[3],1.93 h
CCOc1ncccc1-c1ccc(N2CCN(C(=O)c3ccc(Cl)cc3C(F)(F)F)C[C@H]2CC)c(C(=O)N[C@@H]2CCN(C)C2)n1,bioavailability,[6],17%
same,Ki,[1],0.3 nM
same,AUC(0-t),[7],1.44 µM·h
same,half-life,[8],2.2 h
same,half-life,[2],0.717 h
same,half-life,[3],0.583 h
CCOc1ncccc1-c1ccc(N2CCN(C(=O)C34CCC(C(F)(F)F)(CC3)CC4)C[C@H]2CC)c(C(=O)N[C@@H]2CCN(C)C2)n1,Ki,[1],0.4 nM
same,half-life,[2],0.533 h
same,half-life,[3],1.15 h
CCOc1ncccc1-c1ccc(N2CCN(C(=O)c3ccc(Cl)cc3C(F)(F)F)C[C@H]2CC)c(C(=O)NCCN(C)C)c1,Ki,[1],1.5 nM
CCOc1ncccc1-c1ccc(N2CCN(C(=O)c3ccc(Cl)cc3C(F)(F)F)C[C@H]2CC)c(C(=O)NCCN(C)C)c1F,Ki,[1],0.9 nM
CCOc1ccccc1-c1ccc(N2CCN(C(=O)c3ccc(C(F)(F)F)cc3Cl)C[C@H]2CC)c(C(=O)NCCN)c1,Ki,[1],2 nM
CCOc1ncccc1-c1ccc(N2CCN(C(=O)C3(C(F)(F)F)CCC3)C[C@H]2CC)c(C(=O)N[C@@H]2CCN(C)C2)n1,Ki,[1],3.7 nM
same,half-life,[2],> 11.6 h
same,half-life,[3],1.28 h
CCOc1ncccc1-c1ccc(N2CCN(C(=O)c3ccc(Cl)cc3C(F)(F)F)C[C@H]2CC)c(C(=O)NCCNC)c1,Ki,[1],0.96 nM
CCOc1ncccc1-c1ccc(N2CCN(C(=O)c3ccc(Cl)cc3C(F)(F)F)C[C@H]2CC)c(C(=O)NCCN(C)C)n1,bioavailability,[6],8%
same,Ki,[1],0.39 nM
same,AUC(0-t),[7],0.349 µM·h
same,half-life,[8],1.6 h
same,half-life,[2],0.35 h
same,half-life,[3],0.383 h
CC[C@@H]1CN(C(=O)c2ccc(C(F)(F)F)cc2Cl)CCN1c1ccc(-c2cccc(F)c2Cl)cc1C(=O)NCCN,Ki,[1],36 nM
CC[C@@H]1CN(C(=O)c2ccc(C(F)(F)F)cc2Cl)CCN1c1ccc(-c2ccccc2Cl)cc1C(=O)NCCN,Ki,[1],21 nM
CCOc1ncccc1-c1ccc(N2CCN(C(=O)c3ccc(Cl)cc3C(F)(F)F)C[C@H]2CC)c(C(=O)N[C@@H]2CCNC2)n1,Ki,[1],0.32 nM
same,AUC(0-t),[7],0.279 µM·h
same,half-life,[8],4 h
same,half-life,[2],5.78 h
same,half-life,[3],3.85 h
CC[C@@H]1CN(C(=O)c2ccc(C(F)(F)F)cc2Cl)CCN1c1ccc(-c2ccccc2F)cc1C(=O)NCCN,Ki,[1],47 nM
CCOc1ccccc1-c1ccc(N2CCN(C(=O)C3(C(F)(F)F)CCC3)C[C@H]2CC)c(C(=O)N[C@@H]2CN3CCC2CC3)n1 [ATUMELNANT],Papp,[9],1.9 ×10⁻⁶ cm/s
same,IC50,[10],> 10000 nM
same,fraction unbound at 1 µM,[11],0.132
same,Vd,[12],3.19 L/kg
same,concentration at […],[13],93.9 ng/mL
same,efflux ratio,[14],95
same,bioavailability,[15],100%
same,fraction unbound at 1 µM,[16],0.014
same,half-life,[17],2.73 h
same,bioavailability,[18],47%
same,fraction unbound at 1 µM,[19],0.026
same,IC50,[20],> 10000 nM
same,concentration at 0.5 h,[21],110 ng/mL
same,AUC(0-t),[22],4.97 µM·h
same,concentration at […],[23],1260 ng/mL
same,concentration at 0.5 h,[24],20 ng/mL
same,clearance,[25],24.5 mL/min/kg
same,IC50,[26],750 nM
same,IC50,[27],> 10000 nM
same,concentration at 0.5 h,[28],0.88 ng/mL
same,concentration at 0.5 h,[29],1460 ng/mL
same,IC50,[30],> 10000 nM
same,Cmax,[31],650 nM
same,Ki,[1],2.1 nM
same,Cmax,[32],1220 nM
same,concentration at 0.5 h,[33],1140 ng/mL
same,inhibition at 10 µM,[34],> 70%
same,IC50,[35],> 10000 nM
same,clearance,[36],14.2 mL/min/kg
same,half-life,[2],3.85 h
same,half-life,[3],3.85 h
same,concentration at […],[37],14.1 ng/mL
same,half-life,[38],9.55 h
same,concentration at […],[39],1530 ng/mL
same,concentration at […],[40],87.5 ng/mL
same,concentration at 0.5 h,[41],0.927 ng/mL
same,IC50,[42],> 10000 nM
same,IC50,[43],> 10000 nM
same,IC50,[44],> 10000 nM
same,AUC(0-t),[45],5.2 µM·h
same,concentration at 0.5 h,[46],127 ng/mL
same,Vd,[47],10.5 L/kg

# Reference: ChEMBL document CHEMBL5344485, “Discovery of CRN04894: A Novel Potent Selective MC2R Antagonist” (ACS Med Chem Lett, 2024)
